According to patent publication US20060148730A1, “Method of treating tuberculosis” (priority 2003, published 2006):
≈ marks a conversion by molar mass, not a printed value. Where two headings read alike, the source gives them in different places.

How the values were obtained:
VERO cells = assay: Cytotoxicity against VERO cells (MTS, 72 hours); conditions: result in words
M. tuberculosis H37Rv = assay: MIC vs. M. tuberculosis H37Rv, microplate Alamar Blue assay (MABA); format: cell-based; conditions: for anti-TB activity / MIC in words: result in words
[1] = Overt toxicity in mice, escalating 5-day dosing cycles; format: in vivo, Balb/C mice; conditions: once daily, 5-day cycles, sequentially 200, 300, 400, 500 mg/kg
Procedure: Prior to assessing in vivo efficacy, RU66252 and RU69874 were administered to pairs of female Balb/C mice once daily for 5-day cycles, and observed for overt signs of toxicity (e.g., weight loss, ruffled fur, and huddling), after which the mice were rested for 1 or 2 days. Then the dosage was increased for another 5-day cycle. Overall, the same mice received sequentially for 5 days: 200, 300, 400, and 500 mg/kg.

[2] = system: J774.1 macrophage cell line; assay: Cytotoxicity against J774.1 macrophage cell line; format: cell-based, murine; conditions: Mus musculus
[3] = Table 1a, 11,12-carbamate derivatives, anti-TB activity, read-out: MIC
[4] = Table 3, parallel-synthesis carbazate library products, SPE purified, read-out: MIC
[5] = Table 2a, 11,12-diols, anti-TB activity, read-out: MIC

## CC[C@H]1OC(=O)[C@@](C)(F)C(=O)[C@H](C)[C@@H](O[C@@H]2O[C@H](C)C[C@H](N(C)C)[C@H]2O)[C@](C)(OCC#Cc2cc(-c3cnc4ccccc4c3)no2)C[C@@H](C)C(=O)[C@H](C)[C@H]2NC(=O)O[C@@]21C [Compound A323348]
VERO cells
  in vitro toxicity / cytotoxicity in words: comparable to clarithromycin
M. tuberculosis H37Rv; [3]
  MIC: 0.38 µM (≈ 0.323 µg/mL)
M. tuberculosis H37Rv; read-out: minimum inhibitory concentration (MIC) against M. tuberculosis
  MIC: 0.38 µM (≈ 0.323 µg/mL)
M. tuberculosis H37Rv
  anti-TB activity / MIC in words: very low

## CC[C@H]1OC(=O)[C@H](C)[C@@H](O[C@H]2CC(C)(OC)[C@@H](O)[C@H](C)O2)[C@H](C)[C@@H](O[C@@H]2O[C@H](C)C[C@H](N(C)C)[C@H]2O)[C@](C)(OC)C[C@@H](C)C(=O)[C@H](C)[C@H]2N(NCc3cc(Br)cs3)C(=O)O[C@]12C (stereo partly shown) [F11′]
M. tuberculosis H37Rv; [4]
  MIC: 12.7 µM (≈ 12.2 µg/mL)

## CC[C@H]1OC(=O)[C@H](C)[C@@H](O[C@H]2CC(C)(OC)[C@@H](O)[C@H](C)O2)[C@H](C)[C@@H](O[C@@H]2O[C@H](C)C[C@H](N(C)C)[C@H]2O)[C@](C)(OC)C[C@@H](C)C(=O)[C@H](C)[C@H]2N(NCc3cc4ccccc4s3)C(=O)O[C@]12C (stereo partly shown) [G2′]
M. tuberculosis H37Rv; [4]
  MIC: 11 µM (≈ 10.3 µg/mL)

## CC[C@H]1OC(=O)[C@H](C)[C@@H](O[C@H]2CC(C)(OC)[C@@H](O)[C@H](C)O2)[C@H](C)[C@@H](O[C@@H]2O[C@H](C)C[C@H](N(C)C)[C@H]2O)[C@](C)(OC)C[C@@H](C)C(=O)[C@H](C)[C@H]2N(NCc3sccc3Oc3ccccc3)C(=O)O[C@]12C (stereo partly shown) [G4′]
M. tuberculosis H37Rv; [4]
  MIC: 13 µM (≈ 12.7 µg/mL)

## CC[C@H]1OC(=O)[C@H](C)[C@@H](O[C@H]2CC(C)(OC)[C@@H](O)[C@H](C)O2)[C@H](C)[C@@H](O[C@@H]2O[C@H](C)C[C@H](N(C)C)[C@H]2O)[C@](C)(OC)C[C@@H](C)C(=O)[C@H](C)[C@H]2N(NCC3=Cc4ccccc4OC3)C(=O)O[C@]12C (stereo partly shown) [G6′]
M. tuberculosis H37Rv; [4]
  MIC: 11 µM (≈ 10.3 µg/mL)

## CC[C@H]1OC(=O)[C@H](C)[C@@H](O[C@H]2CC(C)(OC)[C@@H](O)[C@H](C)O2)[C@H](C)[C@@H](O[C@@H]2O[C@H](C)C[C@H](N(C)C)[C@H]2O)[C@](C)(OC)C[C@@H](C)C(=O)[C@H](C)[C@H]2N(NCc3cc(Cl)cc(Br)c3O)C(=O)O[C@]12C (stereo partly shown) [G8′]
M. tuberculosis H37Rv; [4]
  MIC: 14 µM (≈ 14.1 µg/mL)

## CC[C@H]1OC(=O)[C@H](C)[C@@H](O[C@H]2CC(C)(OC)[C@@H](O)[C@H](C)O2)[C@H](C)[C@@H](O[C@@H]2O[C@H](C)C[C@H](N(C)C)[C@H]2O)[C@](C)(OC)C[C@@H](C)C(=O)[C@H](C)[C@H]2N(NCC3CSN=N3)C(=O)O[C@]12C (stereo partly shown) [G10′]
M. tuberculosis H37Rv; [4]
  MIC: >16 µM

## CC[C@H]1OC(=O)[C@H](C)[C@@H](O[C@H]2CC(C)(OC)[C@@H](O)[C@H](C)O2)[C@H](C)[C@@H](O[C@@H]2O[C@H](C)C[C@H](N(C)C)[C@H]2O)[C@](C)(OC)C[C@@H](C)C(=O)[C@H](C)[C@H]2N(NCc3ccc(N4CCC(c5ccccc5OC)CC4)c([N+](=O)[O-])c3)C(=O)O[C@]12C (stereo partly shown) [G12′]
M. tuberculosis H37Rv; [4]
  MIC: 19 µM (≈ 21.1 µg/mL)

## CC[C@H]1OC(=O)[C@H](C)[C@@H](O[C@H]2CC(C)(OC)[C@@H](O)[C@H](C)O2)[C@H](C)[C@@H](O[C@@H]2O[C@H](C)C[C@H](N(C)C)[C@H]2O)[C@](C)(OC)C[C@@H](C)C(=O)[C@H](C)[C@H]2N(NCc3c(Cl)cccc3Cl)C(=O)O[C@]12C (stereo partly shown) [H1′]
M. tuberculosis H37Rv; [4]
  MIC: 11 µM (≈ 10.4 µg/mL)

## CC[C@H]1OC(=O)[C@H](C)[C@@H](O[C@H]2CC(C)(OC)[C@@H](O)[C@H](C)O2)[C@H](C)[C@@H](O[C@@H]2O[C@H](C)C[C@H](N(C)C)[C@H]2O)[C@](C)(OC)C[C@@H](C)C(=O)[C@H](C)[C@H]2N(NCc3cccc4nsnc34)C(=O)O[C@]12C (stereo partly shown) [H3′]
M. tuberculosis H37Rv; [4]
  MIC: >22 µM

## CC[C@H]1OC(=O)[C@H](C)[C@@H](O[C@H]2CC(C)(OC)[C@@H](O)[C@H](C)O2)[C@H](C)[C@@H](O[C@@H]2O[C@H](C)C[C@H](N(C)C)[C@H]2O)[C@](C)(OC)C[C@@H](C)C(=O)[C@H](C)[C@H]2N(NCc3ccc4c(c3)nnn4C)C(=O)O[C@]12C (stereo partly shown) [H7′]
M. tuberculosis H37Rv; [4]
  MIC: >22 µM

## CC[C@H]1OC(=O)[C@H](C)[C@@H](O[C@H]2CC(C)(OC)[C@@H](O)[C@H](C)O2)[C@H](C)[C@@H](O[C@@H]2O[C@H](C)C[C@H](N(C)C)[C@H]2O)[C@](C)(OC)C[C@@H](C)C(=O)[C@H](C)[C@H]2N(NCc3c(Sc4ccc(Cl)cc4)nc4sccn34)C(=O)O[C@]12C (stereo partly shown) [H11′]
M. tuberculosis H37Rv; [4]
  MIC: 35.4 µM (≈ 37.8 µg/mL)

## CCC1OC(=O)C(C)C(OC2CC(C)(OC)C(OC(C)=O)C(C)O2)C(C)C(OC2OC(C)CC(N(C)C)C2OC(C)=O)C(C)(OC)CC(C)C(=O)C(C)C2N(NCCCc3ccnc4ccccc34)C(=O)OC12C (stereo not shown) [ITR0005]
M. tuberculosis H37Rv; Table 5, read-out: MIC
  MIC: 7.7 µM (≈ 8.02 µg/mL)

## CCC1OC(=O)C(C)C(OC2CC(C)(OC)C(O)C(C)O2)C(C)C(OC2OC(C)CC(N(C)C)C2O)C(C)(OC)CC(C)C(=NOC2CCCNC2)C(C)C(O)C1(C)O (stereo not shown) [ITR0009]
M. tuberculosis H37Rv; Table 4, read-out: MIC
  MIC: 24 µM (≈ 20.3 µg/mL)

## CCC1OC(=O)C(C)C(OC2CC(C)(OC)C(O)C(C)O2)C(C)C(OC2OC(C)CC(N(C)C)C2O)C(C)(OC)CC(C)C(=NOC2CCCN(C(=O)OCc3ccccc3)C2)C(C)C(O)C1(C)O (stereo not shown) [ITR0011]
M. tuberculosis H37Rv; Table 4, read-out: MIC
  MIC: 6.0 µM (≈ 5.88 µg/mL)

## CC[C@H]1OC(=O)[C@H](C)[C@@H](O[C@H]2CC(C)(OC)[C@@H](O)[C@H](C)O2)[C@H](C)[C@@H](O[C@@H]2O[C@H](C)C[C@H](N(C)C)[C@H]2O)[C@](C)(OC)C[C@@H](C)C(=O)[C@H](C)[C@H]2N(CC/C=C\c3ccccc3)C(=O)O[C@]12C (stereo partly shown) [ITR0020]
M. tuberculosis H37Rv; Mycobacterium tuberculosis, H37RV, Table 4, read-out: MIC
  MIC: 6.6 µM (≈ 5.96 µg/mL)

## CCC1OC(=O)C(C)(F)C(=O)C(C)C(OC2OC(C)CC(N(C)C)C2O)C(C)(OC)CC(C)C(=O)C(C)C2N(NCCCc3ccnc4ccccc34)C(=O)OC12C (stereo not shown) [RU3562]
M. tuberculosis H37Rv; [3]
  MIC: 16 µM (≈ 13 µg/mL)

## CC[C@H]1OC(=O)[C@H](C)C(=O)[C@H](C)[C@@H](O[C@@H]2O[C@H](C)C[C@H](N(C)C)[C@H]2O)[C@](C)(OC)C[C@@H](C)C(=NOCOCCOC)[C@H](C)[C@@H](O)[C@]1(C)O [RU54615]
M. tuberculosis H37Rv; [5]
  MIC: >128 µM

## CC[C@H]1OC(=O)[C@H](C)C(=O)[C@H](C)[C@@H](O[C@@H]2O[C@H](C)C[C@H](N(C)C)[C@H]2O)[C@](C)(OC)C[C@@H](C)C(=O)[C@H](C)[C@@H](O)[C@]1(C)O [RU56006]
M. tuberculosis H37Rv; [5]
  MIC: >128 µM

## CC[C@H]1OC(=O)[C@H](C)C(=O)[C@H](C)[C@@H](O[C@@H]2O[C@H](C)C[C@H](N(C)C)[C@H]2O)[C@](C)(OC)C[C@@H](C)C(=O)[C@H](C)[C@H]2N(CCCCn3ccnc3)C(=O)O[C@]12C [RU61205]
M. tuberculosis H37Rv; [3]
  MIC: 112 µM (≈ 82.3 µg/mL)

## CC[C@H]1OC(=O)[C@H](C)C(=O)[C@H](C)[C@@H](O[C@@H]2O[C@H](C)C[C@H](N(C)C)[C@H]2O)[C@](C)(OC)C[C@@H](C)C(=NOC2CCCN(C/C=C/c3ccc(-c4ccccc4)cc3)C2)[C@H](C)[C@@H](O)[C@]1(C)O (stereo partly shown) [RU61804]
M. tuberculosis H37Rv; [5]
  MIC: 0.5 µM (≈ 0.439 µg/mL)
M. tuberculosis H37Rv
  anti-TB activity / MIC in words: most potent of the tested 9-oxime compounds

## CC[C@H]1OC(=O)[C@H](C)[C@@H](O[C@H]2CC(C)(OC)[C@@H](O)[C@H](C)O2)[C@H](C)[C@@H](O[C@@H]2O[C@H](C)C[C@H](N(C)C)[C@H]2O)[C@](C)(OC)C[C@@H](C)C(=O)[C@H](C)[C@H]2N(CCCCc3ccnc4ccccc34)C(=O)O[C@]12C (stereo partly shown) [RU66080]
M. tuberculosis H37Rv; [3]
  MIC: 0.44 µM (≈ 0.421 µg/mL)

## CC[C@H]1OC(=O)[C@H](C)C(=O)[C@H](C)[C@@H](O[C@@H]2O[C@H](C)C[C@H](N(C)C)[C@H]2O)[C@](C)(OC)C[C@@H](C)C(=O)[C@H](C)[C@H]2N(CCCn3cnc4c3c(=O)n(C)c(=O)n4C)C(=O)O[C@]12C [RU66740]
M. tuberculosis H37Rv; [3]
  MIC: >128 µM

## CC[C@H]1OC(=O)[C@H](C)[C@@H](O[C@H]2C[C@@](C)(OC)[C@@H](O)[C@H](C)O2)[C@H](C)[C@@H](O[C@@H]2O[C@H](C)C[C@H](N(C)C)[C@H]2O)[C@](C)(OC)C[C@@H](C)C(=O)[C@H](C)[C@H]2N(CCCCn3cnc(-c4cccnc4)c3)C(=O)O[C@]12C [RU69874]
VERO cells
  in vitro toxicity / cytotoxicity in words: comparable to clarithromycin
[1]
  signs of overt toxicity (weight loss, ruffled fur, huddling): No signs of overt toxicity
M. tuberculosis H37Rv
  anti-TB activity / MIC in words: very low

## CC[C@H]1OC(=O)[C@H](C)C(=O)[C@H](C)[C@@H](O[C@@H]2O[C@H](C)C[C@H](N(C)C)[C@H]2O)[C@](C)(OC)C[C@@H](C)C(=O)[C@H](C)[C@H]2N(NCCc3ccccc3)C(=O)O[C@]12C [RU70645]
M. tuberculosis H37Rv; [3]
  MIC: 14 µM (≈ 10.2 µg/mL)

## CC[C@H]1OC(=O)[C@H](C)C(=O)[C@H](C)[C@@H](O[C@@H]2O[C@H](C)C[C@H](N(C)C)[C@H]2O)[C@](C)(OC)C[C@@H](C)C(=O)[C@H](C)[C@H]2N(CCCCn3cnc(-c4cccnc4)c3)C(=O)O[C@]12C [Telithromycin, reference compound]
[2]; J774.1, read-out: J774 IC50
  IC50: 102 µM
[2]; J774.1, read-out: toxicity based on J774 cells
  IC50: 102 µM
M. tuberculosis H37Rv; Mycobacterium tuberculosis, H37RV, Table 1a, 11,12-carbamate derivatives, anti-TB activity, read-out: MIC
  MIC: 48 µM (≈ 39 µg/mL)
M. tuberculosis H37Rv
  anti-TB activity / MIC in words: less active than clarithromycin

## cethromycin [ABT773, reference compound]
M. tuberculosis H37Rv
  MIC against M. tuberculosis: 3 µM
M. tuberculosis H37Rv; [3]
  MIC: 3 µM
